The target in this assay is T1, OC2-HOX (Homo sapiens, UniProt O95948).
T1 sequence (O95948 426-485 limits assumed): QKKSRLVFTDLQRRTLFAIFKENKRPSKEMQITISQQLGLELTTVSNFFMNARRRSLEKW
The assay can be described thus: Binding to OC2-HOX measured by surface plasmon resonance. The conditions noted are these: based on 2:2 Langmuir model simulation of the bimolecular interactions, read-out: binding affinity KD. An excerpt:
FIG. 12A-FIG. 12C depicts in accordance with various embodiments of the invention, CSRM617 derivatives. FIG. 12A depicts chemical structures of CSRM617 derivatives CSRM123 and CSRM843. FIG. 12B depicts dose-dependent binding of CSRM123 and CSRM843 to OC2-HOX, measured by surface plasmon resonance, is shown. […] FIG. 12C depicts IC50 values for compounds CSRM617, CSRM123 and CSRM843 in 22Rv1 and DU145 cell lines.

These results are taken from US11529338B2, “Compositions and methods for treating cancer” (Cedars-Sinai Medical Center, priority 2017, dated 2022).

With `NC(=O)C1CCCCN1C(=O)NCCc1ccc(O)c(O)c1O` (centres unmarked) [CSRM123], the Kd (in general, the free concentration of one partner at which half of the binding sites on the other are occupied at equilibrium, for simple one-to-one binding) is 1150 nM.

Consider `O=C(CNC(=O)Cc1ccc(O)c(O)c1O)NO` [CSRM843], for which the Kd is 118 nM.
